Measured values taken from patent publication US10653691B2, “Method of promoting remyelination” (Case Western Reserve University, priority 2013, dated 2020).

Key:
[1] = mice, intraperitoneal
Protocol: After 1 or 6 h, […] of plasma was collected then each animal was perfused with PBS. Brains were collected, weighed, and rinsed with PBS. Water (0.5 ml) was added to the brain samples, which were then homogenized. Plasma and brain samples were each diluted fivefold with blank rat plasma. Three hundred microlitres of internal standard solution was added to the samples, vortexed, and centrifuged. Five microlitres of each sample was injected into an API-4000Qtrap mass spectrometer and quantified (Climax Labs).

[2] = tested on: glucocorticoid receptor; assay: Western blot of glucocorticoid receptor phosphorylation at Ser220 in OPCs; format: cell-based, mouse; settings: OPCs treated for 1 h
Protocol: EpiSC-derived OPCs were seeded into poly-Lornithine/laminin coated six-well plates and allowed to attach for 2 h in DMEM/F12 without additional factors. Cells were treated with indicated inhibitors or DMSO for 1 h-SCH772984 (ChemieTek, 1 mM), SB590885 (Tocris, 10 nM), LY294002 (Tocris, 10 μM), and PD0325901 (Stemgent, 1 μM). Cells were then stimulated with drug or FGF2 (R&DSystems; 20 ng ml^−1) for 1 h and then lysed in 200 μL RIPA buffer (0.15 M NaCl, 0.05M Tris, pH=8.0, 1 mM EDTA, 1% Triton X-100, 0.1% SDS, 10% glycerol, HALT protease and phosphatase inhibitor (Thermo Fisher) added just before use) and incubated on ice for 20 min. Lysates were centrifuged at 4° C. and supernatant collected. Protein concentrations were determined by Pierce BCA protein assay kit (Thermo Fisher). […] Blots were blocked in either 5% BSA (phosphoprotein) or 5% milk (non phosphoprotein).

[3] = tested on: naive CD4+ T cells; assay: Naive CD4+ T-cell assays; format: cell-based, mouse; settings: Th1 or Th17 driving conditions, 4 days
Protocol: Naive CD4+ T cells (CD4+L-selectin^hi cells) were purified using AutoMacs Magnetic Bead cell separation technology (Miltenyi Biotech) from total lymph node cells isolated from unprimed mice with purity ranging from 98 to 99.9%. For in vitro activation, 5×10^5 naive CD4^+ T cells were activated in the presence of plate-bound anti CD3 (1 μgml^−1) plus Th1—(200 U ml^−1 interleukin-2 (IL-2), 40 U ml^−1 IL-12, 10 μgml^−1 anti-IL-4) or Th17—([…], 50 ng ml^−1 IL-6, 1 μgml^−1 anti-IFN-γ, 1 μgml^−1 anti-IL-4, 1 μgml^−1 anti-IL-2) promoting conditions. On day 4, the cultured T cells were collected and the percentage of viable cytokine positive cells assessed by flow cytometry. The cells were stained with a LIVE/DEAD Fixable Violet Dead Cell Stain Kit, for 405 nm excitation (Life Technologies), anti CD4-APC/Cy7 (clone RM4-5), anti-IFN-γ-PerCP/Cy5.5 (clone XMG1.2), and anti-IL-17-APC (clone eBio17B7) (eBioscience). Viable cells (5×10^5) were analysed per individual sample using a BD Canto II cytometer (BD Biosciences), and the data were analysed using FloJo version 9.5.2 software (Tree Star).

[4] = tested on: mouse OPCs; assay: RNA sequencing of drug-treated OPCs; format: cell-based; settings: 2, 6 or 12 h of drug treatment
Protocol: Cells were lysed directly in 1 ml TRIzol (Invitrogen) and stored at −80° C. Once all samples were collected, samples were thawed on ice and separated with chloroform using Phase Lock Gel tubes (5 PRIME). RNA was isolated using the miRNeasy PlusMini Kit (Qiagen) according to the manufacturer's protocol. One microgram of each sample was then poly-A selected, fragmented, and library prepared using the TruSeqRNA Sample Prep Kit (Illumina) according to the manufacturer's protocol. Samples were indexed using TruSeq adapters. One hundred base-pair paired-end reads were generated for each sample on an Illumina HiSeq 2500 instrument at the Case Western Reserve University Genomics Core facility. Between 5 million and 13 million reads were generated per sample for drug time course experiments. […] EpiSCs, EpiSC OPCs, and in vivo OPCs were sequenced to depths of 51,271,458 reads, 61,072,460 reads, and 62,530,709 reads, respectively. […]
Reference genome files were retrieved from Illumina iGenomes. Reads were aligned to the mm9 genome using Tophat version 2.0.8 with default settings. Expression values of known RefSeq genes were calculated in units of fragments per kilobase per million reads (FPKM) using Cufflinks version 2.0.2. […] The collective list of changed genes for each drug was evaluated with Ingenuity Pathway Analysis (application build 261899, content version 18030641).

[5] = tested on: EpiSC-derived OPCs; assay: Dose-response testing of drug hits (percent PLP1+ oligodendrocytes, cytotoxicity); format: cell-based, mouse; settings: seven point dose response; seen only at the highest 6.7 μM dose
Source text: Dose-response testing of drug hits followed the same procedure with the following modifications to eliminate any artefacts in the primary screen: independently sourced drugs; a distinct batch of EpiSC-derived OPCs from a mouse of opposite sex; multi-dose testing; cytotoxicity analysis; an alternative marker of mature oligodendrocytes proteolipid protein 1 (PLP1, antibody clone AA3 provided by B. Trapp; 1:5,000); and an alternative high content assay endpoint parameter (percentage of oligodendrocytes differentiated instead of process intensity and length parameters). […]
For the 5 μM in vitro screen, stained plates were imaged on the Opera confocal imaging system (PerkinElmer) and a set of 24×10 fields were collected from each well, resulting in an average of 10,000 cells being scored per well. For the dose-response (6.7 μM, 5 μM, 3.3 μM, 1.7 μM, 666 nM, 500 nM, and 333 nM) in vitro assays, plates were imaged on the Operetta High Content Imaging and Analysis system (PerkinElmer) and a set of 14×20 fields captured from each well resulting in an average of 3,300 cells being scored per well. […] Each traced nucleus region was then expanded by 50% and cross-referenced with the mature myelin protein (MBP or PLP1) stain to identify oligodendrocyte nuclei, and from this the percentage of oligodendrocytes was calculated. […]

[6] = tested on: ERK1/2; assay: Western blot of ERK1/2 phosphorylation in mouse fibroblasts; format: cell-based; settings: non-neural cell type, treated for 1 h
[7] = tested on: mouse OPCs; assay: Global phosphoproteomics of drug-treated OPCs; format: cell-based; settings: 1 and 5 h after treatment
Protocol: Briefly, for each sample 30 million cells were lysed with 2% SDS solution with protease and phosphatase inhibitor (Thermo Fisher), and detergent was removed on 200 μl of the cell lysate using the FASP cleaning procedure. Each sample was digested by a two-step Lys-C/trypsin proteolytic cleavage and subjected to phospho-enrichment using a commercially available TiO2 enrichment spin tips (Thermo Fisher). LC-MS/MS analysis used a UPLC system (NanoAcquity, Waters) that was interfaced to an Orbitrap ProVelos Elite MS system (Thermo Fisher). Fold-change calculations were determined from peptide intensities for each drug versus DMSO at each time point. Phosphopeptides with greater than twofold change were imported into Ingenuity Pathway Analysis to elucidate signalling pathways perturbed with drug treatment.

C[C@H]1C[C@H]2[C@@H]3CCC4=CC(=O)C=C[C@]4(C)[C@@]3(F)[C@@H](O)C[C@]2(C)[C@@]1(O)C(=O)CCl [clobetasol]
crossing of the blood-brain barrier [1]: readily crossed the blood-brain barrier | phosphorylation of glucocorticoid receptor at Ser220 [2]: increased the phosphorylation of glucocorticoid receptor at Ser220 | naive T-cell differentiation [3]: altered naïve T-cell differentiation | modulation of gene expression [4]: potently modulated genes downstream of multiple nuclear hormone receptors

Clc1ccc(COC(Cn2ccnc2)c2ccc(Cl)cc2Cl)c(Cl)c1 (stereo not shown) [miconazole]
toxicity and decrease in PLP1 positive cells in dose response [5]: Slight toxicity and a decrease in PLP1 positive cells | ERK1/2 phosphorylation in mouse fibroblasts [6]: no increase of ERK1/2 phosphorylation | pathways affected in phosphoproteomic analysis [7]: proteins in the mitogen-activated protein (MAP) kinase pathway were most strongly affected
